Consider one molecule from patent US9339508B2, “Use of 3-methoxy-pregnenolone for the preparation of a drug for treating a traumatic brain injury” (MAPREG, priority 2003, dated 2016).

SMILES strings stand for the structures.

The test system of one assay is CCI traumatized animals. As to the kind of experiment: Water Exploration Test (WET) after Controlled Cortical Impact (CCI). It counts as in vivo, rat. Further details: key to Entry number in CZ, Conclusion vs. CCI-D0: ↓: decrease of analyzed variable with p < 0.05; ?: stability of analyzed variable; ↑↑: increase in analyzed variable with p < 0.01. To be noted: Day 27; 20 mg/kg (CCI-D2). The protocol:
(§1) CCI was performed with an electromagnetic impact device as described (MyNeurolab, St. Louis, Mo.; Brody et al, 2007). Anesthesized rats were subjected to a single right lateral CCI, with the following parameters impact centered 4.0 mm anterior to lambda and 4.5 mm […] of midline, within the craniotomy of the animal. The impact was set at a velocity of 4 m/s with a sustained depression of 200 ms, using a 5.0 mm tip.
The less anxious is a rat, the more time it will, spend “floating” (null velocity) in the central zone (see Fares-2009).
More precisely, a circular tank (180 cm diameter, 60 cm high) is filled with water maintained at 27° C. to a depth of 40 cm. The water is made opaque by adding black gouache, allowing the VideoTrack system (ViewPoint) to detect the white-coloured rat. This tank is divided into 4 identical quadrants (6,358 cm2 each) using two 180 cm long opaque plastic separators. In each quadrant, one rat is introduced with its head facing the corner between the separator and the tank's wall. It is noteworthy to emphasize that 4 rats can be tested simultaneously using the 4 quadrants. […] Thus, the distance, the number of entries, the time spent, and the velocity profile in the CZ are measured to assess anxiety-like behaviour. […]
The effect of 3-methoxy-PREG (MAP4343) on anxiety induced by trauma was analyzed using the WET test.

The test system of the next assay is spinophilin. As to the kind of experiment: Western blot of spinophilin in cortex and hippocampus after CCI. Format: in vivo, rat. As to conditions: day 35, 10 mg/kg or 20 mg/kg, first injection 2 h post-trauma, injured cortex and hippocampus and contralaterally. The protocol:
as §1
Samples were analyzed by Western-blot at day 35 post-trauma (D35) to evaluate the effects of MAP4343 on: MAP2 (the target of MAP4343 and a modulator of microtubule function), the post-synaptic markers PSD95 and spinophilin, the pre-synaptic marker synaptophysin, and the axonal growth/integrity marker […].
Western blot was performed on cortex and hippocampus of TBI-injured animals receiving the first injection of MAP4343 (at 10 mg/kg or 20 mg/kg) or vehicle (sesame oil) 2 h after injury.
The expression level of various neuronal brain markers of plasticity was measured at day 35 post-trauma by western-blots in the cortex and hippocampus of left uninjured and right injured cerebral hemispheres of CCI traumatized animals receiving either vehicle (sesame oil, CCI-D0) or 3-methoxy-PREG (MAP4343) at 10 mg/kg (CCI-D1) or 20 mg/kg (CCI-D2), with first MAP4343 injection 2 h post-trauma.

Assay [1] has as its system transgenic mice expressing the longest isoform of human tau protein. Briefly: RotaRod motor incoordination in transgenic tau mice. As to conditions: subcutaneous implant releasing 0.38 mg per day for 90 days. It counts as in vivo, mouse. The text has this:
FIG. 8: Effect of molecule 43B on the motor incoordination of transgenic mice expressing the longest isoform of human tau protein in their neurons. […] The maximum speed of rotation of the RotaRod drum before the […] falls is a measurement of motor coordination (higher values correspond to a better treatment effect).
In order to evaluate the therapeutic potential of 433 to treat Alzheimer-type neurodegenerative diseases, a homozygous transgenic line of mice, such as described by Götz (EMBO J. 1995; 14(7):1304-13), can be used.
These mice express the longest human tau protein isoform. They present symptoms of neurological dysfunction expressed as muscular weakness and a reduction in motor coordination which correlate histologically with the appearance of abnormal neurites and hyperphosphorylated tau proteins as is seen in Alzheimer's disease. This pathological phosphorylation decreases the affinity of tau for microtubules and favors its aggregation.
A breeding program was undertaken at Bicêtre and genotyping made it possible to select mice homozygous for the transgene. […] The implants released 0.38 mg of steroid per day for 90 days. The progression of motor incoordination was followed by repeated RotaRod tests.
For orientation: In the rotarod test animals must keep their balance on a rotating rod.

As for `CO[C@H]1CC[C@@]2(C)C(=CC[C@H]3[C@@H]4CC[C@H](C(C)=O)[C@@]4(C)CC[C@@H]32)C1` [3-methoxy-PREG, 3β-methoxy-pregna-5-ene-20-one], in the assay with CCI traumatized animals, the “Entry number in CZ, Conclusion vs. CCI-D0” value is “↑↑” and the “Time spent in CZ, Conclusion vs. CCI-D0” value is given as “↑”. For the same molecule, the spinophilin expression entry in the assay on spinophilin is recorded as “increase in spinophilin expression”. Further, the “motor dysfunction (RotaRod)” value in assay [1] was “beneficial effect on motor dysfunction”.
